Where “and” joins values, the source holds several entries; their conditions need not be identical. Equal values may be shown once.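 Each compound was tested at five concentrations against cells in 96-well plates for 48 hours. Abbreviation: GI50, concentration required for 50% inhibition of growth. Definition used: TGI = concentration required for complete inhibition of growth.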
Assays:
Test in all cases: NCI-60 cell line screen, 48 h
OVCAR-5 ovarian = test system: OVCAR-5 ovarian
COLO 205 colon = test system: COLO 205 colon
MOLT-4 leukemia = test system: MOLT-4 leukemia
HCC-2998 colon = test system: HCC-2998 colon
SK-OV-3 ovarian = test system: SK-OV-3 ovarian
OVCAR-3 ovarian = test system: OVCAR-3 ovarian
SF-268 CNS = test system: SF-268 CNS
U251 CNS = test system: U251 CNS

Compound	TGI (OVCAR-5 ovarian) [µM]	TGI (COLO 205 colon) [µM]	TGI (MOLT-4 leukemia)	TGI (HCC-2998 colon)	TGI (SK-OV-3 ovarian)	TGI (OVCAR-3 ovarian)	TGI (SF-268 CNS)	TGI (U251 CNS)	GI50 (COLO 205 colon)	GI50 (MOLT-4 leukemia) [µM]	GI50 (U251 CNS)
NC(=O)NNC/C(Cl)=C(\Cl)C(=O)O	> 100	> 100	> 100 µM	> 100 µM	> 100 µM	> 100 µM	> 100 µM	> 100 µM			
C/C(=N\N=C(N)N)C(CN1CCOCC1)C(c1ccccc1)c1c(O)c2ccccc2oc1=O (stereo not drawn)	> 100	> 100	> 100 µM	> 100 µM	> 100 µM	> 100 µM	> 100 µM	> 100 µM			
C=CC1=C(C)C(/C=c2\[nH]/c(=C/c3[nH]c(CC4NC(=O)C(C)/C4=C\C)c(C)c3CCC(=O)O)c(CC(=O)O)c2C)=NC1=O (stereo not drawn)	> 100	> 100	> 100 µM	> 100 µM	> 100 µM	> 100 µM	> 100 µM	> 100 µM			
O=C1CCC2(O)c3ccccc3C2Cc2ccccc21 (stereo not drawn)		> 100	> 100 µM	> 100 µM		> 100 µM	> 100 µM	> 100 µM			
OC1OCC(COc2cc(Cl)c(Cl)cc2Cl)OC1O (stereo not drawn)	> 100	> 100	> 100 µM	> 100 µM	> 100 µM	69.5 µM	> 100 µM	> 100 µM			
COc1cc(C2c3cc4c(cc3[C@@H](NC3CCN(Cc5ccccc5)CC3)C3COC(=O)[C@H]23)OCO4)cc(OC)c1O (stereo partly drawn)	1.51		0.0129 µM and 0.0258 µM	1.13 µM and 0.427 µM	0.445 µM and 0.503 µM	1.56 µM and 1.04 µM	1.98 µM and 0.584 µM	0.594 µM and 0.183 µM	0.372 µM and 0.179 µM	< 0.01	0.115 µM and 0.026 µM
Cc1ccc(/C=C2\CCCCC2=O)cc1		> 100	45.4 µM		> 100 µM	> 100 µM	> 100 µM	> 100 µM			
COc1ccc(N=NC2=C(O)CCC2=O)cc1	> 100	> 100	> 100 µM	> 100 µM	> 100 µM	> 100 µM	> 100 µM	> 100 µM			
CSc1ccc(N2C(=O)C3c4[nH]c5ccccc5c4C4CCC(C(C)(C)C)CC4C3C2=O)cc1 (stereo not drawn)	> 100	25.2	31.7 µM	33.3 µM	32.7 µM	> 100 µM	45.4 µM	31.5 µM			
C=CCC1(CN(C)C)CC/C(=C\c2ccc3c(c2)OCO3)C1=O (stereo not drawn)	> 100	54.1	72.8 µM	> 100 µM		> 100 µM	> 100 µM	> 100 µM			
Cc1cc(-c2ccccc2)nc(Nc2cc3ccccc3[nH]2)n1	> 100	> 100	> 100 µM	> 100 µM	> 100 µM	> 100 µM	> 100 µM	> 100 µM			
COc1ccc(C(C2=C(O)CC(C)OC2=O)C2=C(O)CC(C)OC2=O)cc1 (stereo not drawn)	> 100	> 100	> 100 µM	> 100 µM		> 100 µM	> 100 µM	> 100 µM			
CCCCCCCCCCCCCCNCC(OC)OC	27.8	28.3		33.4 µM	33.1 µM	32.6 µM	39.4 µM	31.6 µM			
CCC(O)CCCCCCCCCCCCCCC(=O)O (stereo not drawn)	> 100	> 100	> 100 µM		> 100 µM	> 100 µM	> 100 µM	> 100 µM			
COc1cc(/C=C2\[C@@H]3NC(Cc4c(OC)c(C)c(OC)c(OC)c43)C(=O)N2Cc2ccccc2)c(OC)c(C)c1OC	> 100	28.3	94 µM	> 100 µM	> 100 µM	> 100 µM	> 100 µM	> 100 µM			
CC1(c2ccc(F)cc2)C2C(=O)NC(=O)C1C(=O)NC2=O (stereo not drawn)	> 100	> 100	> 100 µM	> 100 µM	> 100 µM	> 100 µM	> 100 µM				
CC1C(c2ccccc2)N(C)C(c2ccccc2)C(C)C1(O)c1ccccc1 (stereo not drawn)	> 100	58.7	> 100 µM	> 100 µM	> 100 µM	> 100 µM	> 100 µM	> 100 µM			
O=C(CC12C3C4C1C1C2C3C41CC(=O)NO)NO (stereo not drawn)	> 100	> 100	> 100 µM	> 100 µM		> 100 µM	> 100 µM	> 100 µM			
O=C(NC1CCC[C@H]1OC(=O)c1ccccc1)c1ccccc1 (stereo partly drawn)	> 100		> 100 µM		> 100 µM	> 100 µM	> 100 µM	> 100 µM			
CCO/C=C\C12CCCC1NC(c1ccccc1)(c1ccccc1)O2 (stereo not drawn)	37		46 µM		> 100 µM	55.7 µM	> 100 µM	> 100 µM			

— PubChem BioAssay (NCI)
